Reference: ChEMBL document CHEMBL1145498, “A systematic interaction map of validated kinase inhibitors with Ser/Thr kinases” (Proc Natl Acad Sci U S A, 2007)

What was measured:
[1] = biological target: 5'-AMP-activated protein kinase catalytic subunit alpha-2 (Homo sapiens) (UniProt P54646)
[2] = biological target: Cyclin-dependent kinase 2 (Homo sapiens, UniProt P24941)
[3] = biological target: Dual specificity protein kinase CLK3 (Homo sapiens) (UniProt P49761)
[4] = biological target: Casein kinase I isoform gamma-1 (Homo sapiens) (UniProt Q9HCP0)
[5] = biological target: Death-associated protein kinase 3 (Homo sapiens) (UniProt O43293)
[6] = biological target: Serine/threonine-protein kinase 26 (Homo sapiens) (UniProt Q9P289)
[7] = biological target: T1, Serine/threonine-protein kinase Nek2 (Homo sapiens) (UniProt P51955)
T1 sequence (whole entry): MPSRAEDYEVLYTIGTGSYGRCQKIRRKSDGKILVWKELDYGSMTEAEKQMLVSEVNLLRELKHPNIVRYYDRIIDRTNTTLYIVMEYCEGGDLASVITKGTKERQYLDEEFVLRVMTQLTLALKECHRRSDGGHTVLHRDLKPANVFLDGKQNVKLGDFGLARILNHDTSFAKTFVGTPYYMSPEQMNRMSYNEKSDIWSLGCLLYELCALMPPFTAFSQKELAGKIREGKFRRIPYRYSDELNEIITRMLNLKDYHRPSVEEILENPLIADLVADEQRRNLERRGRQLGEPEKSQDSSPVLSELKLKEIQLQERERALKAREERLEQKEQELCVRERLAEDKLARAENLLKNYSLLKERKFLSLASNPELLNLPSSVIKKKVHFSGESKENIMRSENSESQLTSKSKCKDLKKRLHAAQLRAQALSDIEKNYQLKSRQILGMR

[8] = biological target: Serine/threonine-protein kinase PAK 6 (Homo sapiens) (UniProt Q9NQU5)
[9] = biological target: T2, Serine/threonine-protein kinase PLK4 (Homo sapiens) (UniProt O00444)
T2 sequence (whole entry): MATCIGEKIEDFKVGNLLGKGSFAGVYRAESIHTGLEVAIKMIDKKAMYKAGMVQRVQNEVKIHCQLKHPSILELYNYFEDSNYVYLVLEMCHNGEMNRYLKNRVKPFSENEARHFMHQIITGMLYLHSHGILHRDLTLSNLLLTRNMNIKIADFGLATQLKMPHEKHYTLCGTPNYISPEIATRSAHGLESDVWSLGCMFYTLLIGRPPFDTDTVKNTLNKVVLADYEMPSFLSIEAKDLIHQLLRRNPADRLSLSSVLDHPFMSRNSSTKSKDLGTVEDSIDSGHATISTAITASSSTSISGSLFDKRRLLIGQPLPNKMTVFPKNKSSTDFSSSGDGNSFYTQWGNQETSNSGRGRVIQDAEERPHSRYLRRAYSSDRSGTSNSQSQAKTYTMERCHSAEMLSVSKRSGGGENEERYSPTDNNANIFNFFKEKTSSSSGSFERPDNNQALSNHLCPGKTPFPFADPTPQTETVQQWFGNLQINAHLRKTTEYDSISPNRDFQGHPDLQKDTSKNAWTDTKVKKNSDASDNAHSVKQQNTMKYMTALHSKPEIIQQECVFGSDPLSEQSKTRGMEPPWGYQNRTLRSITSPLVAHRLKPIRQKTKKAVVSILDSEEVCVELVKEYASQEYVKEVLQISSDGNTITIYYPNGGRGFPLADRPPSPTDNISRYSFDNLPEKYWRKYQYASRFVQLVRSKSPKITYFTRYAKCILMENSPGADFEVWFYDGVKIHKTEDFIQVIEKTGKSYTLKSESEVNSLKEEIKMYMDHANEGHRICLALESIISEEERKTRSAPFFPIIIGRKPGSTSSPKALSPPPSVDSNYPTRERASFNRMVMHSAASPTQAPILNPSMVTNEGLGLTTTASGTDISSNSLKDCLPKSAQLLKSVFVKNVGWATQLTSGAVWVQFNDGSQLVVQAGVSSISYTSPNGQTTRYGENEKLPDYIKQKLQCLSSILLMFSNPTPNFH

[10] = biological target: cAMP-dependent protein kinase catalytic subunit alpha (Homo sapiens) (UniProt P17612)
[11] = biological target: T3, Serine/threonine-protein kinase 17A (Homo sapiens) (UniProt Q9UEE5)
T3 sequence (whole entry): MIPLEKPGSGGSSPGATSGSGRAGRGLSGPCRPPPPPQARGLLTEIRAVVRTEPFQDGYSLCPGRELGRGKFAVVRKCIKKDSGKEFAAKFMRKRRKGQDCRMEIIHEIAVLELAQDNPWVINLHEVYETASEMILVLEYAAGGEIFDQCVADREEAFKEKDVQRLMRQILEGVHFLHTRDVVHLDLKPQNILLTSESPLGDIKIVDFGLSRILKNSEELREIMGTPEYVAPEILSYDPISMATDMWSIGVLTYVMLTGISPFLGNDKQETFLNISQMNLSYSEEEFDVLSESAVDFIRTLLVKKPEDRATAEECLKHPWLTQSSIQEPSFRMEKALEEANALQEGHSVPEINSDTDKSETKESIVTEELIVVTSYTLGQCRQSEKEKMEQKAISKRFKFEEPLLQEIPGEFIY

[12] = biological target: Serine/threonine-protein kinase 38 (Homo sapiens) (UniProt Q15208)
[13] = biological target: Serine/threonine-protein kinase 26 (Homo sapiens) (UniProt Q9P289); remark: listed apart in the source
[14] = biological target: T4, Serine/threonine-protein kinase VRK3 (Homo sapiens) (UniProt Q8IV63)
T4 sequence (whole entry): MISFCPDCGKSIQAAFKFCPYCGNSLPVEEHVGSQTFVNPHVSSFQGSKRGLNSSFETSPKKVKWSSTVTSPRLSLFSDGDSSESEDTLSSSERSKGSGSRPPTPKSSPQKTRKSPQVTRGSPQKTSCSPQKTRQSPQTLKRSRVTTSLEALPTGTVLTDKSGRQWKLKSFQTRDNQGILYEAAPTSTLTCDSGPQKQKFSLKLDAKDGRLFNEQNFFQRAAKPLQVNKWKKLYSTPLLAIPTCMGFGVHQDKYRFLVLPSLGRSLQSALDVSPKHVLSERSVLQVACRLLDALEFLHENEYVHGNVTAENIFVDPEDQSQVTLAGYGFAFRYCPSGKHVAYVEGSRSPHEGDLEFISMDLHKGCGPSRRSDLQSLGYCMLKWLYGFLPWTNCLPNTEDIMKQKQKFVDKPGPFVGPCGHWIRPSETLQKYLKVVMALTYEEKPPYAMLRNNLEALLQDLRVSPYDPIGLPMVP

Sequence of Serine/threonine-protein kinase 38 (Homo sapiens) (Q15208 2-465 limits assumed): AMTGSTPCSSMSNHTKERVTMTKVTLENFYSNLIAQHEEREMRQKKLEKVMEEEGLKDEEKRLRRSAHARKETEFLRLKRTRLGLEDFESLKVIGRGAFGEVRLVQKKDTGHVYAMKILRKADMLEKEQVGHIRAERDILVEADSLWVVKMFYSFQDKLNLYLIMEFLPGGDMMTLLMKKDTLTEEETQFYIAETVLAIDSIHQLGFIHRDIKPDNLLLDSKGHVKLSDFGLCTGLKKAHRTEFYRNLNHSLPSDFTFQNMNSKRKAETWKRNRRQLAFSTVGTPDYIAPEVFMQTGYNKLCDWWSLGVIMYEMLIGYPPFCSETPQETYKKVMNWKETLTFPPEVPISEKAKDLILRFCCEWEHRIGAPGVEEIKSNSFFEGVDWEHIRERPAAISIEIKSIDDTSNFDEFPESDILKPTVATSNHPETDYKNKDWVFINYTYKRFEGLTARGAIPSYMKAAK
Sequence of Serine/threonine-protein kinase 26 (Homo sapiens) (Q9P289 2-416 limits assumed): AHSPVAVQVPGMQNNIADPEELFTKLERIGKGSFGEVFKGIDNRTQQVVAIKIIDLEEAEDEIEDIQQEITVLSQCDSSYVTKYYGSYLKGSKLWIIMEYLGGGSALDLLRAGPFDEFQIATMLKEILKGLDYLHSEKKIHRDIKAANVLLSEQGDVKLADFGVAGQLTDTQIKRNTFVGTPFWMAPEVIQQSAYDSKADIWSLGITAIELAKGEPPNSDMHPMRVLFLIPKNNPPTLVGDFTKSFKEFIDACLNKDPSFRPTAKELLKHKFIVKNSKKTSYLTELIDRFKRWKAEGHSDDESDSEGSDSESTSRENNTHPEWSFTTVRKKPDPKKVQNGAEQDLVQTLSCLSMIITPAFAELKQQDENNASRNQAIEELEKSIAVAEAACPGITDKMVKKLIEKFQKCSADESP
Sequence of Casein kinase I isoform gamma-1 (Homo sapiens) (Q9HCP0 whole entry, looked up, canonical isoform): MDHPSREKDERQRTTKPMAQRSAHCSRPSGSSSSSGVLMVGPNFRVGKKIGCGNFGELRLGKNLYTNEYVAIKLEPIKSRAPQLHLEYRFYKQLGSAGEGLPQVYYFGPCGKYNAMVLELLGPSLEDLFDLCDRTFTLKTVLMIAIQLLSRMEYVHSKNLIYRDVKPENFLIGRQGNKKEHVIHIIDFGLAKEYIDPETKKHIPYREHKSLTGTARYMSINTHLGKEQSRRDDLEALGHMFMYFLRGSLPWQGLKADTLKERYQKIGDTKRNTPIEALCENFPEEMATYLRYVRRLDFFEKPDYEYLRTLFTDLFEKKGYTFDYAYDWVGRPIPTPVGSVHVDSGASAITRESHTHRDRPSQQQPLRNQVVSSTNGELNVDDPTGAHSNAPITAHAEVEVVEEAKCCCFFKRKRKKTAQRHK
Sequence of Serine/threonine-protein kinase PAK 6 (Homo sapiens) (Q9NQU5 whole entry, looked up): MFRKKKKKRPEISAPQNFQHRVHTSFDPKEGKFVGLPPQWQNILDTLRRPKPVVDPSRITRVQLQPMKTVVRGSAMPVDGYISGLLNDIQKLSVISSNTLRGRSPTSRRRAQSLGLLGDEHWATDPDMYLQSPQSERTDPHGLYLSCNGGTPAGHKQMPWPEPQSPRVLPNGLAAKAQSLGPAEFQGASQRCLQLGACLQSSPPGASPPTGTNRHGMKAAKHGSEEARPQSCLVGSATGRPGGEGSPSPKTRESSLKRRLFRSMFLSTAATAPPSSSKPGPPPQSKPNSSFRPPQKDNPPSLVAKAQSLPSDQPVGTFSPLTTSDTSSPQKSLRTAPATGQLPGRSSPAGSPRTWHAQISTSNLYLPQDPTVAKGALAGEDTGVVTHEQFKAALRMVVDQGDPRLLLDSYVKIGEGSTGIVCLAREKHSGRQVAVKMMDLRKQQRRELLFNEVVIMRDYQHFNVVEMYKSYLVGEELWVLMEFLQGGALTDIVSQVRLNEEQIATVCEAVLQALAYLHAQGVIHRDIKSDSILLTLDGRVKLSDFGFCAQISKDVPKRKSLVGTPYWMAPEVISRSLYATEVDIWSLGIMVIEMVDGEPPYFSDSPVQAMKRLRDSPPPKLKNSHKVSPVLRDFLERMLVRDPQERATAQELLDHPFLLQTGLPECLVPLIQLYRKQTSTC
Sequence of 5'-AMP-activated protein kinase catalytic subunit alpha-2 (Homo sapiens) (P54646 whole entry, looked up): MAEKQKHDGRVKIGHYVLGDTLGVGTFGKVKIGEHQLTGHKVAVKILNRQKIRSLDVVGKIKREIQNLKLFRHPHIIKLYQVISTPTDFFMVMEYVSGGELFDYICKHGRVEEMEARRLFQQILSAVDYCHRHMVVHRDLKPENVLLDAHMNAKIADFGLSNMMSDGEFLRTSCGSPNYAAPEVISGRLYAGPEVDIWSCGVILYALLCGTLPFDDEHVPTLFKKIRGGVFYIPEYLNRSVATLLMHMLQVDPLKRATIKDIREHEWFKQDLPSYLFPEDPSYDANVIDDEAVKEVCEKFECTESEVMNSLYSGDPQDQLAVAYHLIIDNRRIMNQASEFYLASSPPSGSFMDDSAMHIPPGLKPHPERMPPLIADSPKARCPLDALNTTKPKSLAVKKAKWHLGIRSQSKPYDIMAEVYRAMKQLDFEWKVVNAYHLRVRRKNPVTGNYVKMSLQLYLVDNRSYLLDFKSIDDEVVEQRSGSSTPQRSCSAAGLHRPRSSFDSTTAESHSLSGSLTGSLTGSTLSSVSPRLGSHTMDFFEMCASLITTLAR
Sequence of Death-associated protein kinase 3 (Homo sapiens) (O43293 whole entry, looked up): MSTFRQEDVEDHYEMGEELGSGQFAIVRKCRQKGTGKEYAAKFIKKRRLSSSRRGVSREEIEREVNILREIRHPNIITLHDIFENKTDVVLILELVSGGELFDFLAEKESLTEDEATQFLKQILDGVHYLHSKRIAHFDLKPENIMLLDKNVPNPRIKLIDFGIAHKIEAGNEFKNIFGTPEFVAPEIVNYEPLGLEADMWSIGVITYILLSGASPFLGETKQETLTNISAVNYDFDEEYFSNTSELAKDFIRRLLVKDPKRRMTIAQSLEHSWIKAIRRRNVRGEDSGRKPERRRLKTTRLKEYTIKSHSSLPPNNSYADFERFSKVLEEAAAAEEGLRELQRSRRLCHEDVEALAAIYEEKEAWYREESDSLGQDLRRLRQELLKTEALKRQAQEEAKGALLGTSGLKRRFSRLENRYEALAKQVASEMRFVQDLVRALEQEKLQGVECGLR
Sequence of Dual specificity protein kinase CLK3 (Homo sapiens) (P49761 whole entry, looked up, canonical isoform): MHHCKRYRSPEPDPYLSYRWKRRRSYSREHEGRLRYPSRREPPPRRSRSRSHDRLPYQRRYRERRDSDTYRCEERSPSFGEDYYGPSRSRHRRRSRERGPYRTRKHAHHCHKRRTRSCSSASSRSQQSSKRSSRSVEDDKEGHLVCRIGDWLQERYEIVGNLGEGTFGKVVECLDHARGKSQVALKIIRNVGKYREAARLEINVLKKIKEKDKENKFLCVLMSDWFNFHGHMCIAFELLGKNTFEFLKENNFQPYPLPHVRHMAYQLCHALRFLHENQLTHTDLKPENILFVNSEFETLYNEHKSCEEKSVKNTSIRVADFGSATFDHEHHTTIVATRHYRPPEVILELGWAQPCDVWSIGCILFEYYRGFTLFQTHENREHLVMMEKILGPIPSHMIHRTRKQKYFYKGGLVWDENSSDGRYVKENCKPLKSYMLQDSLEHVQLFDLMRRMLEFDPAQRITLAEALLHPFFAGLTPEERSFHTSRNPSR

Row | SMILES | ΔTm [1] | ΔTm [2] | ΔTm [3] | ΔTm [4] | ΔTm [5] | ΔTm [6] | ΔTm [7] | ΔTm [8] | ΔTm [9] | ΔTm [10] | ΔTm [11] | ΔTm [12] | ΔTm [13] | ΔTm [14]
1 | O=C1Nc2ccccc2/C1=C/c1cnc[nH]1 | 3.3 °C | 6.6 °C | 1 °C | 1.2 °C | 1.6 °C | 4.3 °C | 2 °C | 1.9 °C | 5.8 °C | 1.6 °C | 9 °C | 2.9 °C | 4.5 °C | 0.1 °C
2 | Cc1cc(C=C2C(=O)C=CC2=O)cc(C)c1O | -2.2 °C | 1 °C | -1.5 °C | 0.1 °C | 0.6 °C | 0.4 °C | 0.8 °C | -2.6 °C | 1.3 °C | 0.5 °C | -4.6 °C | 0.2 °C | -0.1 °C | -0.3 °C
3 | COc1cccc(-c2cc(=O)c3ccccc3o2)c1N | -0.5 °C | 0.3 °C | 0 °C | 0.1 °C | -0.5 °C | -0.1 °C | -0.2 °C | 0.4 °C | 0.2 °C | 0.3 °C | 0.7 °C | 0.2 °C | -0.3 °C | 0.6 °C
4 | CC(C)n1cnc2/c(=N/c3cccc(Cl)c3)nc(NCCO)[nH]c21 | 0.3 °C | 1.6 °C | 4 °C | 6.1 °C | 2.2 °C | 2.1 °C | 1.3 °C | 3.8 °C | 1.3 °C | 1.4 °C | 1.4 °C | 2.7 °C | 0.9 °C | 0.4 °C
5 | Nc1cccc(-c2cc3c(Oc4cccc(O)c4)ncnc3[nH]2)c1 | 0.6 °C | 0.9 °C | 0.9 °C | 1.5 °C | 0.4 °C | 0.8 °C | 2.6 °C | 1.3 °C | 0.8 °C | -0.6 °C | 0.9 °C | 2.2 °C | 2.2 °C | 2.2 °C
6 | O=C1c2ccccc2-[n+]2ccc3c([nH]c4ccccc43)c21 [FASCAPLYSIN CHLORIDE] | 0 °C | 0 °C | -0.9 °C | -0.6 °C | -0.5 °C | -0.8 °C | -2 °C | -0.9 °C | -0.1 °C | 0.6 °C | 1.5 °C | -0.5 °C | -2.5 °C | -0.4 °C
7 | CSc1nc(-c2ccc(F)cc2)c(-c2ccnc(NC(C)c3ccccc3)c2)[nH]1 (racemic) | -0.4 °C | -0.5 °C | -0.2 °C | 3.6 °C | 2.4 °C | 0.7 °C | 0.9 °C | -0.3 °C | 0.3 °C | -0.7 °C | 0.1 °C | 0.3 °C | -0.1 °C | -0.3 °C
8 | CCN1/C(=C/C(C)=O)Sc2ccc(OC)cc21 | -0.1 °C | 0.1 °C |  | 2.5 °C | 0.9 °C | -0.3 °C | 0.8 °C | -0.9 °C | -0.2 °C | -0.5 °C | 0.4 °C | 0.5 °C | 0.7 °C | 0.1 °C
9 | CN(C)C[C@@H]1CCn2cc(c3ccccc32)C2=C(C(=O)NC2=O)c2cn(c3ccccc23)CCO1 [RUBOXISTAURIN] | 1.3 °C | 0.9 °C | 0.3 °C | 0.5 °C | 1.1 °C | -2 °C | 1.5 °C | 0.8 °C | 1.5 °C |  | -0.2 °C | 0 °C | 4.1 °C | -0.3 °C
10 | Cn1cnc2c(NCc3ccccc3)nc(NCCO)nc21 [OLOMOUCINE] | 0.2 °C |  | -0.1 °C | 0.1 °C | -0.1 °C | 0.2 °C | 1.1 °C | -0.5 °C | 0.2 °C | -0.1 °C | -0.1 °C | 0 °C | 0 °C | 0.1 °C
11 | NS(=O)(=O)c1ccc(Nc2nc(OCC3CCCCC3)c3nc[nH]c3n2)cc1 | 1.9 °C |  | 1.3 °C | 2.6 °C | 0.8 °C | 2.9 °C | 4.9 °C | 1.7 °C | 1.1 °C | -0.1 °C | 1.8 °C | 1.5 °C | 5.7 °C | 4.7 °C
12 | CC[C@H](CO)Nc1nc(NCc2ccccc2)c2ncn(C(C)C)c2n1 [SELICICLIB] | 0.4 °C |  | 0.8 °C |  |  | 0.6 °C | 0.7 °C | 0.5 °C | 0.3 °C | 0.2 °C | -0.5 °C | 0.3 °C | 0.3 °C | 0.6 °C
13 | COc1ccc2c(c1)/C(=C/c1cnc[nH]1)C(=O)N2 [SU-9516] | 4.1 °C |  | 1.3 °C | 1 °C | 2.7 °C | 4.2 °C | 1.2 °C | 2.3 °C | 4.9 °C | 1 °C | 9.8 °C | 3.4 °C | 2 °C | 0.3 °C
14 | Brc1c(Br)c(Br)c2[nH]nnc2c1Br [TETRABROMOBENZOTRIAZOLE] | 0.4 °C |  | 2 °C | -0.4 °C | 3.6 °C | 1.2 °C | -0.1 °C | -0.1 °C | 4.4 °C | 0.6 °C | 4.1 °C | 1.3 °C | 1.3 °C | -1.2 °C
